Paper PMC11236999, “Antagonism of propofol anesthesia by alkyl-fluorobenzene derivatives” (Scientific Reports, 2024)
Entries after “also recorded” stand apart in the source; their conditions may differ. Like-named read-outs stand apart in the source and are kept apart here.

Key:
[1] = test system: 5 dpf larval zebrafish; experiment: Zebrafish behavioral model of anesthesia, spontaneous movement (SM); assay type: in vivo; conditions: for Antagonism of propofol via SM: screen; for Spontaneous movement (SM), compound alone: PFAL compound alone at 10 and 30 μM, versus DMSO control; for Antagonism of propofol via SM at 5 μM propofol: propofol 5 μM
Procedure: (§1) Figure 2 Screening of PFAL compounds for antagonism of anesthesia. PFAL compounds were screened in 5 dpf zebrafish for their ability to antagonize the anesthetic effects of propofol (panels a, b, c and d) as well as sevoflurane and isoflurane (panels e and f). Each dot represents the data collected from one fish. Spontaneous movement (SM) is the distance of spontaneous swimming in a 4 min period, and elicited movement (EM) is distance moved in 1 s after exposure to a tap stimulus. Both measures were scaled to same-day DMSO controls. […] Mean and 95% CI are shown for each data set. Statistical comparison with both DMSO (D) only (black asterisks) and anesthetic control (Ctrl, gray asterisks) groups are shown. Note that each DMSO comparison is to the DMSO only control (sample on the furthest left of each graph, and the anesthetic control comparisons are made within each anesthetic grouping as indicated by the bars along the x-axis of each graph. ns: P > 0.05, *: P ≤ 0.05, **: P ≤ 0.01, ***: P ≤ 0.001, ****: P ≤ 0.0001).
(§2) Behavioral experiments (screening, EC50 curves) were performed as previously reported. Antagonism after induction was conducted in a similar manner with different timepoints and solution changes as indicated. The DanioVision Observation Chamber (Noldus) and Ethovision XT16 software were used to track and record (1280 × 960 resolution at 25 frames per second) larval zebrafish (5 dpf) movement in glass 96-well plates (Zissner North America 3,600,500). All experiments were performed at 28 °C with the DanioVision Temperature Control Unit. Zebrafish were allowed to equilibrate in E3 and 2% DMSO (with or without drug) for 10 min before being placed in the observation chamber for 22 min of recording. Two different endpoints were used to assess depth of anesthesia: spontaneous movement (SM) and elicited movement (EM). In these measures, fish movement was considered to be non-anesthetized. During each observation, fish were given time to acclimate to the chamber, and minutes 15–19 of the recording were used for analysis of SM. An EM response using the Daniovision tapping device (8 out of 8 intensity, movement response measured for 1 s after stimulus) was also measured at the end of the SM observation period. All recordings were scrutinized by a blind observer for technical errors in tracking to ensure accuracy of zebrafish detection and inaccurate tracking was excluded from further analysis. Toxicity was measured in separate experiments by exposing larvae to compounds for 30 min, transferring to fresh E3, and then observing mortality after exposure. […]

[2] = target: T1, horse spleen apoferritin (HSAF) (Equus caballus, UniProt P02791); experiment: 1-Aminoanthracene (1-AMA) competition fluorescence assay; assay type: binding
T1 construct: model protein HSAF (horse spleen apoferritin); purchased Sigma-Aldrich; host or cells: horse spleen (tissue-derived)
T1 sequence (P02791 2-175 limits assumed): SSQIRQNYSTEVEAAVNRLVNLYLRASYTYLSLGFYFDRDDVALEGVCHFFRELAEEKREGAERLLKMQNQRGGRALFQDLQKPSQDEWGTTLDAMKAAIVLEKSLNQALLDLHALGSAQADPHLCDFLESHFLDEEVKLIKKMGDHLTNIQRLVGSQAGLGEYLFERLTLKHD

[3] = test system: 5 dpf larval zebrafish; experiment: Zebrafish behavioral model of anesthesia, elicited movement (EM, tap stimulus); assay type: in vivo; conditions: for Antagonism of propofol via EM: screen
Procedure: as §1, §2

[4] = at 20°C; no reference given; cited from earlier work
[5] = HPLC concentration of volatile anesthetics in sealed glass 96-well plates over time; assay type: physicochemical; conditions: 3M 300LSE adhesive seal, 3-hour mark
Procedure: Behavioral Experiments with Volatile Anesthetics. Solutions of inhaled volatile anesthetics were stored in glass vials with minimal head space and were transferred utilizing Hamilton gas-tight syringes to prevent evaporative loss. Isoflurane (Primal Care) was stored at 4°C, and sevoflurane (AbbVie Inc.) was stored at -20°C. Solutions were made in DMSO and then diluted in glass scintillation vials to the desired experimental concentrations in E3 (embryo water). Each vial contained 22 mL of E3 which minimized head space to prevent drug loss. Vials were sealed quickly after addition of volatile anesthetics to minimize loss. Solutions were mixed via vortexing, and anesthetics dissolved readily in the final DMSO concentration of 2%. […]
have a significant change in zebrafish behavior. To assure consistent concentration of volatile anesthetic, this experiment was repeated without fish and concentrations were measured by HPLC. […]
1-Aminoanthracene Competition Fluorescence Assay. […] After filtration, the 1-AMA concentration was determined by UV−vis spectroscopy utilizing an experimentally determined extinction coefficient of 1-AMA (Σ368 = 4073 M−1 cm−1).4 Stock solutions of ligand were prepared in DMSO. […] The fluorescence curves were corrected by subtracting contributions from 1-AMA alone and HSAF alone. Fluorescence intensities at 515 nm were plotted as a percentage […]

[6] = test system: 5 dpf larval zebrafish; set-up: method as in PMID 32978423; conditions: 5 dpf zebrafish, previously determined; read-out: EC50 for EM of the anesthetic; cited from earlier work
[7] = test system: 5 dpf larval zebrafish; set-up: method as in PMID 32978423; conditions: 5 dpf zebrafish, previously determined; read-out: EC50 for SM of the anesthetic; cited from earlier work
[8] = test system: 5 dpf zebrafish; experiment: Antagonism of anesthesia after induction (sequential addition); assay type: in vivo; conditions: propofol 3 μM for 10 min, then propofol 3 μM plus 30 μM compound
Procedure: In the above studies, the anesthetic and PFAL compounds were co-administered to the fish simultaneously.
Figure 5 Further Characterization of Propofol Antagonism with Compounds 9 and 10. a and b 5 dpf zebrafish (n = 36) were first anesthetized with 3 μM propofol and then 30 μM of either compound 9 or 10 was added. Between minutes 5 and 10 there is a small gap in the data during which the propofol solution was removed and a solution containing propofol and PFAL compound was added. […] The mean and 95% CI is shown for each data point in all panels.
Behavioral experiments (screening, EC50 curves) were performed as previously reported. Antagonism after induction was conducted in a similar manner with different timepoints and solution changes as indicated. The DanioVision Observation Chamber (Noldus) and Ethovision XT16 software were used to track and record (1280 × 960 resolution at 25 frames per second) larval zebrafish (5 dpf) movement in glass 96-well plates (Zissner North America 3,600,500). […] An EM response using the Daniovision tapping device (8 out of 8 intensity, movement response measured for 1 s after stimulus) was also measured at the end of the SM observation period. […] Toxicity was measured in separate experiments by exposing larvae to compounds for 30 min, transferring to fresh E3, and then observing mortality after exposure.

[9] = 30 μM PFAL compound co-administered with propofol (0.3, 1, 5 μM)
[10] = 10 μM PFAL compound co-administered with propofol

With `C1CCc2nnnn2CC1` [Pentylenetetrazole, pentylenetetrazole, reference compound] the Pattern of movement ([1]; known epileptogenic comparator) was “uncontrolled movement (seizure)”.

With `CC(C)(C)c1ccc(C(C)(C)C)c(F)c1` [Compound 13, 1,4-ditertbutyl-2-fluorobenzene] the “Log(IC50), displacement of 1-AMA from HSAF” value ([2]; Fig. 6a, nb = non-binding) was “nb”.

In the case of `CCc1ccc(CC)c(F)c1` [Compound 7, 1,4-diethyl-2-fluorobenzene], the “Antagonism of propofol via SM” value [1, 9] is reported as “showed antagonism of propofol; also recorded: statistically significant antagonism”, the “Spontaneous movement (SM), compound alone” value [1] is reported as “increased SM” and the “Antagonism of propofol via EM” value ([3]; 30 μM PFAL compound co-administered with propofol) is reported as “did not antagonize propofol”.

For `FCOC(C(F)(F)F)C(F)(F)F` [Sevoflurane], the Vapor pressure [4] is listed as 157 mmHg, the “Concentration remaining in sealed glass 96-well plate” value [5] is listed as “constant” and the EC50 [6] is listed as 240 µM. For the same molecule, the EC50 [7] was 76 µM.

For `Cc1ccccc1F` [Compound 2, 1-methyl-2-fluorobenzene], the “Antagonism of propofol via EM” value [3, 10] was “not to be statistically different than the propofol controls”.

For `CC(C)c1cccc(C(C)C)c1O` [Propofol], the EC50 ([1]; Danio rerio, propofol alone, Fig. 4a) is given as 0.14 µM, the EC50 ([3]; Danio rerio, propofol alone, Fig. 4b) is given as 3.53 µM and the EC50 [6] is given as 3.8 µM. For the same molecule, the EC50 [7] was 0.1 µM.

For `CC(C)(C)c1ccccc1F` [Compound 11, 1-tertbutyl-2-fluorobenzene], the “Antagonism of propofol via EM” value [3, 10] was “not to be statistically different than the propofol controls”.

For `CC(C)c1ccc(C(C)C)c(F)c1` [Compound 10, 1,4-diisopropyl-2-fluorobenzene], the “Antagonism of propofol via SM” value [1, 10] was “demonstrated antagonism of propofol”, the “Antagonism of propofol via SM at 1 μM propofol” value ([1]; 10 μM PFAL compound, propofol 1 μM) was “able to antagonize propofol” and the “Antagonism of propofol via SM at 5 μM propofol” value ([1]; 10 μM PFAL compound) was “did not show antagonism”. The “Antagonism of propofol via SM” value [1, 9] was “showed antagonism of propofol; also recorded: statistically significant antagonism”, the “Antagonism of propofol via SM at 5 μM propofol” value ([1]; 30 μM PFAL compound) was “antagonized propofol” and the IC50 ([1]; Danio rerio, 120 h, 5 dpf zebrafish exposed to 3 μM propofol, Fig. 5d, read-out: IC50 (antagonism of propofol)) was 25.3 µM. The “Spontaneous movement (SM), compound alone” value [1] was “increased SM”, the “Increase of propofol EC50 versus propofol alone, spontaneous movement” value ([1]; propofol plus 30 μM compound, Fig. 4a) was “~ fourfold” and the “Reversal of established propofol immobility” value [8] was “rapid reversal of propofol immobility”. The “Elicited movement (EM), compound alone” value ([3]; PFAL compound alone at 10 and 30 μM, versus DMSO control) was “increased EM”, the “Schild-type analysis with EM” value ([3]; propofol EC50 curves (EM) at various concentrations of the compound, Fig. S6) was “no such relationship of antagonism was observed” and the “Inhibition of 1-AMA binding to HSAF” value ([2]; 15 μM 1-AMA, 15 μM HSAF dimer, ligand 1 to 125 μM) was “most potent inhibitors of 1-AMA binding”. For the same molecule, the “Shape of IC50 curve for 1-AMA displacement” value ([2]; Fig. 6b) was “incomplete inhibition of 1-AMA binding”.

For `FC(F)OC(Cl)C(F)(F)F` (centres unmarked) [Isoflurane], the Vapor pressure [4] is given as 238 mmHg, the “Concentration remaining in sealed glass 96-well plate” value [5] is given as 96% and the EC50 [6] is given as 180 µM. The EC50 [7] was 42 µM.
